Results as given in publication PMC6212833 (mBio, 2018).
Like-named read-outs stand apart in the source and are kept apart here. Marks after values point to notes of the source that are not given here.

Legend:
[1] = tested on: B. mandrillaris cysts; test: Dose response, viability of preformed galactose-induced cysts; format: cell-based, Balamuthia mandrillaris; details: 72 h
Experimental: Following the findings of a previous study, encystment of B. mandrillaris was induced by galactose exposure ([74]). B. mandrillaris trophozoites were grown to log phase in axenic media, and galactose was added to reach a final concentration of 12% (vol/vol). Amoebae were cultured in the induction medium until trophozoites were no longer observed (approximately 10 days). Galactose-induced cysts transition back to trophozoites after approximately 3 days of incubation in galactose-free axenic medium. Therefore, all assays with cysts were completed in the induction medium. […] All incubation steps for B. mandrillaris growth were carried out at 37°C with 5% CO2.
(§1) B. mandrillaris trophozoites were seeded at 4,000 amoebae per well into opaque and clear-bottom 96-well plates (Corning). Homogenous populations of B. mandrillaris cysts generated by galactose induction were seeded at 4,000 amoebae per well into opaque 96-well plates. HFF-1 (fibroblast), H4 (glial), U87 (glial), HEK-293T (kidney), and Hep-G2 (liver) cells were seeded at 3,000 cells per well in opaque 96-well plates 24 h prior to addition of drug. Stocks of nitroxoline (Selleck Chemicals) were dissolved in 100% DMSO at 10 mM. Stocks of azithromycin (Selleck Chemicals), pentamidine isethionate (Selleck Chemicals), and miltefosine (Selleck Chemicals) were dissolved in water at 10 mM. Drug stocks were serially diluted in water to generate 12-point dilution series, which were then used to treat assay wells containing B. mandrillaris or human cells at final concentrations ranging from 0.39 µM to 400 µM in 100-µl total well volumes. Control wells were treated with vehicle (DMSO or water) at concentrations corresponding to the final vehicle concentrations in each drug dilution series. After incubation for 72 h, 50 µl of CTG was added to all assay wells. Luminescence was measured with a Promega GloMax-Multi+ plate reader 2, 4, and […] after CTG addition. All dose-response experiments were performed with at least three independent biological replicates. IC50 values were determined as previously described. To quantify encystment under treated and untreated conditions, amoebae in individual assay wells were resuspended thoroughly and the number of cysts and number of trophozoites in 10-µl samples were counted by the use of a hemocytometer (SKC, Inc.). Cysts and trophozoites are morphologically distinct, making them simple to distinguish with bright-field microscopy (example images are shown in Fig. S1 in the supplemental material). Encystment assays were performed with three independent biological replicates.

[2] = Cytotoxicity, mean of all cell lines; format: cell-based; details: human, U87, H4, HEK-293T, HFF-1 and Hep-G2 cell lines (mean of all), unit inferred
Experimental: as §1

[3] = tested on: B. mandrillaris; test: Recrudescence assay on HFF-1 monolayer after drug treatment; format: cell-based, Balamuthia mandrillaris; details: for concentration that completely eliminated B. mandrillaris populations: 72 h treatment, no recovery after 28 days of coculture
[4] = Cytotoxicity dose response, H4; format: cell-based; details: human, H4 (glial) cells, unit not given in Table S3, drug concentrations in µM, read-out: CC50 H4 cell line
Experimental: as §1

[5] = Cytotoxicity dose response, HEK-293T; format: cell-based; details: human, HEK-293T (kidney) cells, unit not given in Table S3, drug concentrations in µM, read-out: CC50 HEK-293T cell line
Experimental: as §1

[6] = tested on: B. mandrillaris trophozoites; test: Primary human brain tissue explant infection model; format: cell-based, Balamuthia mandrillaris; details: 35 μM simultaneously with inoculation, removed at 20 h, evaluated at 96 h
[7] = tested on: B. mandrillaris trophozoites; test: Drug combination dose matrices, trophozoite viability (EOHSA model); format: cell-based, Balamuthia mandrillaris; details: 72 h
Experimental: Experiments measuring the effect of drug combinations were carried out similarly to the dose-response experiments described above. B. mandrillaris trophozoites were seeded into opaque 96-well plates (Corning) at a density of 4,000 amoebae per well and then treated with concentrations of nitroxoline that differed across the rows of each plate and with concentrations of either miltefosine or pentamidine isethionate that differed down the columns to generate 7-by-7 dose combination matrices. Final drug concentrations ranged from 0.5 to 10 µM, from 10 to 100 µM, and from 1 to 100 µM for nitroxoline, miltefosine, and pentamidine isethionate, respectively. After incubation with drug or vehicle was performed for 72 h, CTG was added to all assay wells and luminescence was measured with a Promega Glomax-Multi+ plate reader. The percent effect of each drug combination was calculated as the reduction in luminescence value relative to vehicle-only controls. The additive effect of drug combinations was assessed using the excess over highest single agent (EOHSA) model ([76], [77]). […] Drug combination experiments were performed with three independent replicates.

[8] = Cytotoxicity dose response, U87; format: cell-based; details: human, U87 (glial) cells, unit not given in Table S3, drug concentrations in µM, read-out: CC50 U87 cell line
Experimental: as §1

[9] = tested on: B. mandrillaris trophozoites; test: Side-by-side dose response, trophozoite viability; format: cell-based, Balamuthia mandrillaris; details: 72 h
Experimental: as §1

[10] = design: method as in PMID 3309832, PMID 118941, PMID 7251741; details: adults, 600 to 800 mg/day, cited from earlier work
[11] = tested on: B. mandrillaris; test: Encystment assay, counts of cysts and trophozoites; format: cell-based, Balamuthia mandrillaris; details: 72 h of treatment with different drug concentrations
Experimental: as §1

[12] = tested on: H4 human neuroglioma cells; test: Secondary screening dose response, toxicity to H4 cells; format: cell-based; details: Homo sapiens; 72 h; approximated from dose-response curves
[13] = tested on: B. mandrillaris trophozoites; test: Secondary screening dose response, B. mandrillaris trophozoites; format: cell-based, Balamuthia mandrillaris; details: Balamuthia mandrillaris, 72 h, read-out: B. mandrillaris IC50
Experimental: (§2) Secondary screening of hit compounds consisted of dose-response experiments to measure the toxicity of each compound to B. mandrillaris trophozoites, HFF-1 human fibroblast cells, and H4 human neuroglioma cells. Four 384-well plates were prepared prior to addition of drug as follows: one opaque plate (Corning) seeded with 3,000 HFF-1 cells per well in 60 µl complete media, one opaque plate seeded with 2,000 H4 cells per well in 60 µl complete media, one opaque plate containing 30 µl axenic media, and one clear plate (Corning) containing 30 µl axenic media. Opaque plates were used to measure the viability of trophozoites in the CTG assay, and clear plates were used for microscopic examination of cyst formation. HFF-1 and H4 plates were seeded 24 h prior to drug addition. The selected primary screen hits were added from 10 mM DMSO stocks into wells of all four test plates to reach final concentrations ranging from 0.06 µM to 30 µM (10 concentrations, 2-fold serial dilution). Negative-control wells received concentrations of DMSO corresponding to the amount of DMSO in each tested drug well (reaching a maximum of 0.3% DMSO). B. mandrillaris trophozoites were resuspended in axenic media and added to the plates containing drug dilutions in axenic media at a density of 3,000 amoebae per well in a final volume of 60 µl media. All plates were incubated for 72 h. Throughout the incubation period, the clear-bottom B. mandrillaris plate was monitored for large-scale changes to population encystment in response to drug treatment. After the 72-h incubation, 30 µl of CTG reagent was added to all wells of the opaque assay plates and luminescence was measured with a Promega GloMax-Multi+ plate reader at 2, 4, and 8 h after CTG addition.

[14] = Cytotoxicity dose response, Hep-G2; format: cell-based; details: human, Hep-G2 (liver) cells, unit not given in Table S3, drug concentrations in µM, read-out: CC50 Hep-G2 cell line
Experimental: as §1

[15] = tested on: gliomas; design: method as in PMID 25074541; details: systemically delivered; cited from earlier work
[16] = tested on: B. mandrillaris trophozoites; test: microbe, parasite or virus in culture; format: cell-based, Balamuthia mandrillaris; details: Balamuthia mandrillaris, 72 h
[17] = tested on: HFF-1 human fibroblast cells; test: Secondary screening dose response, toxicity to HFF-1 cells; format: cell-based; details: Homo sapiens, HFF-1; 72 h; approximated from dose-response curves; read-out: HFF1 IC50
Experimental: as §2

[18] = Cytotoxicity dose response, HFF-1; format: cell-based; details: human, HFF-1 (fibroblast) cells, unit not given in Table S3, drug concentrations in µM, read-out: CC50 HFF-1 cell line
Experimental: as §1

[19] = tested on: B. mandrillaris trophozoites; test: Nitroxoline structure-activity relationship dose response (CellTiter Glo); format: cell-based, Balamuthia mandrillaris; details: Balamuthia mandrillaris, 72 h, 8-point dose response in triplicate; read-out: IC50
[20] = tested on: B. mandrillaris; design: method as in PMID 15347743, PMID 23869955, PMID 16579814; details: in vitro; cited from earlier work
[21] = Balamuthia mandrillaris, read-out: IC50, B. mandrillaris cysts, preformed cysts, 12% galactose induction medium, 72 h
[22] = preformed cysts, 12% galactose induction medium, read-out: IC50, B. mandrillaris cysts
[23] = 28 µM for 72 h, then drug-free coculture with HFF-1, NRT = no recovery of trophozoites or host cell destruction observed through 28 days
[24] = Balamuthia mandrillaris, read-out: IC50, B. mandrillaris trophozoites, 72 h

Structure (SMILES): O=[N+]([O-])c1ccc(O)c2ncccc12 [Nitroxoline, 8-hydroxy-5-nitroquinoline]
- IC50 [1, 21]: 15.5 µM
- IC50 [1, 22]: 15.5 µM
- CC50 at 72 h [2]: 19.3 µM
- Mean no. of days for host cell clearance ± SE ([3]; 3.5 µM for 72 h, then drug-free coculture with HFF-1, 28-day experiment): 15.33 ± 0.67 days
- Mean no. of days for host cell clearance ± SE ([3]; 7 µM for 72 h, then drug-free coculture with HFF-1, 28-day experiment): 19 ± 0.58 days
- Mean no. of days for host cell clearance ± SE ([3]; 14 µM for 72 h, then drug-free coculture with HFF-1, 28-day experiment): 22 ± 2.08 days
- Mean no. of days for host cell clearance ± SE [3, 23]: NRT^a
- concentration that completely eliminated B. mandrillaris populations [3]: 28 µM
- CC50 at 72 h [4]: 5.6 µM
- CC50 at 72 h [5]: 4.9 µM
- protection of human brain tissue explants [6]: do not show signs of tissue damage or loss of cell density
- Percent inhibition of B. mandrillaris viability ([7]; Fig S2A, nitroxoline 0.5 µM alone): -4%
- Percent inhibition of B. mandrillaris viability ([7]; Fig S2A, nitroxoline 2 µM alone): 28%
- Percent inhibition of B. mandrillaris viability ([7]; Fig S2A, nitroxoline 2.5 µM alone): 31%
- Percent inhibition of B. mandrillaris viability ([7]; Fig S2A, nitroxoline 3 µM alone): 34%
- Percent inhibition of B. mandrillaris viability ([7]; Fig S2A, nitroxoline 5 µM alone): 92%
- Percent inhibition of B. mandrillaris viability ([7]; Fig S2A, nitroxoline 10 µM alone): 93%
- Percent inhibition of B. mandrillaris viability ([7]; Fig S2B, nitroxoline 0.5 µM alone): 0%
- Percent inhibition of B. mandrillaris viability ([7]; Fig S2B, nitroxoline 2 µM alone): 28%
- Percent inhibition of B. mandrillaris viability ([7]; Fig S2B, nitroxoline 2.5 µM alone): 33%
- Percent inhibition of B. mandrillaris viability ([7]; Fig S2B, nitroxoline 3 µM alone): 32%
- Percent inhibition of B. mandrillaris viability ([7]; Fig S2B, nitroxoline 5 µM alone): 91%
- Percent inhibition of B. mandrillaris viability ([7]; Fig S2B, nitroxoline 10 µM alone): 92%
- CC50 at 72 h [8]: 24.9 µM
- IC99, B. mandrillaris trophozoite viability [9]: 7.54 µM
- IC50 [9, 24]: 2.8 µM
- IC50 ([9]; read-out: IC50, B. mandrillaris trophozoites): 2.84 µM
- maximal plasma concentrations (Cmax) [10]: ~5600 ng/mL
- Cmax ([10]; read-out: maximal plasma concentrations (Cmax)): ~30 µM
- encystment response [11]: increase in both the total number and the proportion of cysts
- IC50 [12]: 7 µM
- IC50 [13]: 11 µM
- CC50 at 72 h [14]: 9.3 µM
- efficacy against gliomas [15]: exhibits efficacy against gliomas in mice
- inhibition at 20 µM [16]: 100%
- IC50 [17]: > 30 µM
- CC50 at 72 h [18]: 51.8 µM
- IC50 [19]: 4.77 µM

Structure (SMILES): CCCCCCCCCCCCCCCCOP(=O)([O-])OCC[N+](C)(C)C [Miltefosine]
- IC50 [1, 21]: 76.5 µM
- IC50 [1, 22]: 76.5 µM
- CC50 at 72 h [2]: 49 µM
- Mean no. of days for host cell clearance ± SE [3, 23]: 1.5 ± 0.33 days
- Mean no. of days for host cell clearance ± SE ([3]; 56 µM for 72 h, then drug-free coculture with HFF-1, 28-day experiment): 3.5 ± 2.64 days
- Mean no. of days for host cell clearance ± SE ([3]; 84 µM for 72 h, incomplete recovery of trophozoites and destruction of host cells on day 28): >28^b days
- concentration that completely eliminated B. mandrillaris populations [3]: 112 µM
- Mean no. of days for host cell clearance ± SE ([3]; […] for 72 h, NRT = no recovery of trophozoites or host cell destruction observed through 28 days): NRT^a
- CC50 at 72 h [4]: 8.4 µM
- CC50 at 72 h [5]: 68.8 µM
- Percent inhibition of B. mandrillaris viability ([7]; Fig S2A, miltefosine 10 µM alone): -12%
- Percent inhibition of B. mandrillaris viability ([7]; Fig S2A, miltefosine 30 µM alone): -13%
- Percent inhibition of B. mandrillaris viability ([7]; Fig S2A, miltefosine 50 µM alone): 19%
- Percent inhibition of B. mandrillaris viability ([7]; Fig S2A, miltefosine 60 µM alone): 44%
- Percent inhibition of B. mandrillaris viability ([7]; Fig S2A, miltefosine 80 µM alone): 91%
- Percent inhibition of B. mandrillaris viability ([7]; Fig S2A, miltefosine 100 µM alone): 96%
- CC50 at 72 h [8]: 34.7 µM
- IC50 [9, 24]: 63.2 µM
- encystment response [11]: no substantial number of cysts was observed at any concentration
- CC50 at 72 h [14]: 66.1 µM
- inhibition of amoebic growth [20]: amoebicidal or amoebistatic activity
- CC50 at 72 h [18]: 67.1 µM
